Key:
[1] = 7-day oral toxicity study in dogs; assay type: in vivo
[2] = Quantitative whole-body autoradiography tissue distribution of 14C-Compound #10; assay type: in vivo; conditions: rats, single oral 50 mg/kg
Method: For the QWBA, the carcasses were prepared by immediately freezing them, embedding them in chilled carboxymethylcellulose, and freezing them into blocks. Appropriate cryomicrotome sections of the blocks at 40 μm thickness were collected on adhesive tape. Mounted sections were tightly wrapped and exposed on phosphorimaging screens along with plastic embedded autoradiographic standards. Exposed screens were scanned and the autoradiographic standard image data were sampled to create a calibrated standard curve. Specified tissues, organs, and fluids were analyzed.

[3] = 28-day oral toxicity study in rats with 14-day recovery; assay type: in vivo
Method: (§1) A battery of genotoxicity studies was also performed. […] The L23 vehicle was used.
Exposures were maximal at 120 mg/kg/day.

MDA MB 468 xenografts = test: Tumor perfusion by DCE-MRI in MDA MB 468 xenografts; assay type: in vivo, athymic nude mice; conditions: 10 mg/kg oral QD
Excerpt: Experimental Design. Dynamic contrast-enhanced magnetic resonance imaging can be used preclinically and clinically to evaluate the anatomy of soft tissues, including the identification and accurate measurement of tumor volumes. In addition, evaluation of the intratumoral pharmacokinetics of contrast agents containing gadolinium can be used to measure vascular permeability characteristics. Coupling gadopentetate dimeglumine gadolinium to a […] like bovine serum albumin can reveal information about the necrotic (non-perfused) and non-necrotic (perfused) tumor volumes, and the percentage of vascular blood volume relative to the perfused tumor volume (known as the fractional blood volume [fBV]). Use of a […] tracer, gadopentetate dimeglumine, can reveal information regarding the volume transfer coefficient (K^trans), a variable that represents a combination of vascular permeability, vascular surface area, and blood flow.
Before each DCE-MRI scan, mice were injected intravenously with gadolinium-containing contrast dyes (bovine serum albumin-gadopentetate dimeglumine conjugate at ˜0.03 mmol/kg followed by gadopentetate dimeglumine at ˜0.2 mmol/kg). Baseline DCE-MRI measurements were taken on Day −1, test Compounds were administered on Day 0 through Day 5, and additional DCE-MRI measurements were taken on Days 1, 3, and 5. Image analyses were conducted with customized software. Total tumor volumes were measured by semi-automatically segmenting a region of interest around an anatomical image of the tumor. Tumor volumes of necrotic and non-necrotic tissues were measured by applying the same semi-automated segmentation process to a contrast dyed image. fBV and K^trans were computed using a standard Kety PK model.

[4] = Phase 1 escalating multiple-dose study in healthy volunteers: pharmacokinetics (Table 28); assay type: in vivo, human
Method: (§2) The study was performed under the oversight of the French health authorities. The study was not performed under an IND.
Methods. The trial was a Phase 1, randomized, escalating multiple dose, single center study conducted in 2 stages.
Capsules contained 2 mg or 20 mg of active substance.
Capsules contained 20 mg or 25 mg of active substance.
Noncompartmental methods were used to compute Tmax, Cmax, and AUC. Dose proportionality and sex effect were evaluated using ANOVA on log transformed PK parameters using dose, sex, and dose by sex as fixed factors.

CYP3A4 = molecular target: T1, CYP3A4 (Homo sapiens, UniProt P08684); test: CYP inhibition in human hepatic microsomes or recombinant isoenzymes: CYP3A4; assay type: in vitro ADME
T1 construct: host or cells: human hepatic microsomes or human recombinant isoenzymes
T1 sequence (P08684 whole entry): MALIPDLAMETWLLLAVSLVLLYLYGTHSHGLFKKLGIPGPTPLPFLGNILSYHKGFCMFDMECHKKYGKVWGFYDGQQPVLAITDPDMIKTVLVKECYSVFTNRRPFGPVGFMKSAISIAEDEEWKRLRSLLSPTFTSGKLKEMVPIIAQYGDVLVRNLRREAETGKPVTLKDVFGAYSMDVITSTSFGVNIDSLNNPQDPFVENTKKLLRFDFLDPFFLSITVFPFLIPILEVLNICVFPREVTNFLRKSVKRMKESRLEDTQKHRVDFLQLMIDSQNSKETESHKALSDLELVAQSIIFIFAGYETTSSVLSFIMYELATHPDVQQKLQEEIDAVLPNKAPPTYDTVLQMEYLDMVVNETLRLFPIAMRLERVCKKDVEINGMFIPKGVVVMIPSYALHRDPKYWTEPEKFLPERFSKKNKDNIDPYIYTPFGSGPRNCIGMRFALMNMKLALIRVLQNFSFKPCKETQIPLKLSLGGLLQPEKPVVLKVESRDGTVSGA
Excerpt: It is possible that in certain clinical trial subjects, such agents may need to be adjusted for dosing or replaced by alternative agents that are not metabolized by CYP2D6, particularly when such agents may have a low therapeutic index.

[5] = Cardiovascular safety pharmacology study in awake telemeterized dogs; assay type: in vivo, beagle dogs; conditions: single oral doses of 30, 60, and 120 mg/kg, male dogs
[6] = test system: soluble VEGF121 and VEGF165 isoforms; test: ELISA of soluble VEGF121/165 production in HeLa cells under hypoxia or normoxia; assay type: cell-based, human
Method: Experimental Design. HeLa (human cervical carcinoma) cell cultures were established under normoxic conditions (21% oxygen). HeLa cells increase VEGF production 4- to 5-fold in response to hypoxia. […] At the completion of treatment, the conditioned media were collected and the VEGF protein levels were assayed in an enzyme-linked immunosorbent assay (ELISA) with primary antibodies that recognize the soluble VEGF121 and VEGF165 isoforms (R & D Systems, Minneapolis, Minn., USA). To ensure that decreases in VEGF concentration were not due to cytotoxicity, cultures were assayed using a standard assay ([…]-GLO® Luminescent Cell Viability Assay; Promega, Madison, Wis., USA) that measures total cellular adenosine triphosphate (ATP) concentrations as an indicator of cell viability.

[7] = molecular target: human-ether-a-go-go-related gene (hERG) current (Homo sapiens, UniProt Q12809); test: Higher throughput hERG assay; assay type: biochemical
Sequence of human-ether-a-go-go-related gene (hERG) current (Q12809 whole entry): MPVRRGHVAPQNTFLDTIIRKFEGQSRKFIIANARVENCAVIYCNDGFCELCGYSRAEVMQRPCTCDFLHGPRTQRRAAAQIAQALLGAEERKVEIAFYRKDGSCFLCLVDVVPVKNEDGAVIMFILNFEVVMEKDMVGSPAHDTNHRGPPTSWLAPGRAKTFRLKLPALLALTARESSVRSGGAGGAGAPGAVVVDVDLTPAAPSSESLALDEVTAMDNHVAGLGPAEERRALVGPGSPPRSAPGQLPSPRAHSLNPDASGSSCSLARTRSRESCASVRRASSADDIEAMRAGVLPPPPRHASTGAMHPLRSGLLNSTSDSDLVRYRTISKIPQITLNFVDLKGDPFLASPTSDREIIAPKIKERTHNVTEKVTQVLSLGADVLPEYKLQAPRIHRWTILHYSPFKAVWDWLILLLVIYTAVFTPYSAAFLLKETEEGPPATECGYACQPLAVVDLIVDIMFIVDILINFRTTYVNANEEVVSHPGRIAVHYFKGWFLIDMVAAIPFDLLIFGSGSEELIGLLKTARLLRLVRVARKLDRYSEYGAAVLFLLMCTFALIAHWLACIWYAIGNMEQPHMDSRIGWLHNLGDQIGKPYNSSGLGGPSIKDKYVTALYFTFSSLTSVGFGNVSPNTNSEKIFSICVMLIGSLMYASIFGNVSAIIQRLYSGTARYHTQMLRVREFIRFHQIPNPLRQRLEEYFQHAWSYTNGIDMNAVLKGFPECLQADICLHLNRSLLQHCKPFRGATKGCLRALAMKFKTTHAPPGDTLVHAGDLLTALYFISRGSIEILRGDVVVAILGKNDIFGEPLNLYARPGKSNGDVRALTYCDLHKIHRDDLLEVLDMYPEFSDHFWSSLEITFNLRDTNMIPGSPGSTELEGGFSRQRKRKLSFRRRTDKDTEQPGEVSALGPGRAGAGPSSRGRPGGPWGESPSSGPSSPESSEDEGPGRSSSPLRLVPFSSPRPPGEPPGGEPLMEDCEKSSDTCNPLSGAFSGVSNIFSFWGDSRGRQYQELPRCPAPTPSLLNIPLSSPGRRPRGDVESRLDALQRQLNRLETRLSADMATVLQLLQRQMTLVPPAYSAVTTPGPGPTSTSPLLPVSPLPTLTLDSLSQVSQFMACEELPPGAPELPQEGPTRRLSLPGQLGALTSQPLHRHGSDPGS

physiological VEGF-A = test: Phase 1 study in healthy volunteers: plasma and serum physiological VEGF-A concentrations; assay type: in vivo, human; conditions: any dose tested
Method: as §2
Plasma VEGF Concentrations: Plasma and serum VEGF concentrations and concentration changes from baseline were presented descriptively.

[8] = 7-day oral toxicity study in rats; conditions: Sprague Dawley, rat, in vivo; for NOAEL at 7 days: oral gavage
Method: as §1
Maximal exposures occurred at a dose of 120 mg/kg/day.

[9] = test system: normal human keratinocyte; test: ATP viability assay in keratinocytes; assay type: cell-based; conditions: any concentration tested
Method: Experimental Design. Nontransformed normal human keratinocyte cell cultures were established under normoxic conditions (21% oxygen). […] At the completion of treatment, cells were assessed for viability with an ATP assay and conditioned media were evaluated for VEGF protein levels by ELISA (as described in Section 9.1.1.1).

[10] = test system: hypoxia-inducible endogenous VEGF expression; test: Hypoxia-inducible endogenous VEGF expression ELISA in HeLa cells, dose-response EC50 (Table 3); assay type: cell-based; conditions: Homo sapiens, hypoxic conditions (1% O2), VEGF ELISA of conditioned media
Method: The ability of the Compounds to modulate hypoxia-inducible endogenous VEGF expression may be analyzed as follows. VEGF protein levels may be monitored by an ELISA assay (R&D Systems). Briefly, HeLa cells may be cultured for 24-48 hours under hypoxic conditions (1% O2, 5% CO2, balanced with nitrogen) in the presence or absence of a Compound. The conditioned media may then be assayed by ELISA, and the concentration of VEGF calculated from the standard ELISA curve of each assay.
A dose-response analysis may be performed using the ELISA assay and conditions described above. The conditions for the dose-response ELISA are analogous to those described above. A series of, e.g., seven different concentrations may be analyzed. In parallel, a dose-response cytotoxicity assay may be performed using Cell Titer Glo (Promega) under the same conditions as the ELISA to ensure that the inhibition of VEGF expression was not due to the cytotoxicity.

## COc1ccc(C2c3[nH]c4ccc(Cl)cc4c3CCN2C(=O)Oc2ccc(Cl)cc2)cc1 (racemic) [Compound #10]
[1]; both sexes, beagle, dog, in vivo, dogs, oral capsules
  NOAEL at 7 days: 60 mg/kg/day
[1]; dogs, 10, 30, or 60 mg/kg/dose BID, 7 days
  dose at which exposures were maximal: 30 mg/kg/dose BID
[1]; dogs, males and females, 10, 30, or 60 mg/kg/dose BID, 7 days
  treatment-related clinical finding: increased incidence and frequency of soft stools
[1]; dogs, oral capsules
  NOAEL for 7-days: 30 mg/kg/dose BID
[2]
  blood-brain barrier penetration (in words): penetrates the blood-brain barrier
  signs of toxicity: no overt signs of toxicity
[3]; 40 and 120 mg/kg/day, males but not females, 28-day study
  mean PT and aPTT: reversible increases
[3]; both sexes, Sprague Dawley, rat, in vivo, rats, oral gavage
  NOAEL at 28 days: 12 mg/kg/day
[3]; rats, 12, 40, and 120 mg/kg/day, 28 days
  dose at which exposures were maximal: 120 mg/kg/day
MDA MB 468 xenografts; Day -1 to Day 5
  mean K^trans in non-necrotic tissue (in words): decreased
  mean non-necrotic tumor volume (in words): decreased
  mean total tumor volume (DCE-MRI), change (in words): little mean change
MDA MB 468 xenografts; significant by Day 1
  mean necrotic (non perfused) tumor volume (in words): rapidly increased
MDA MB 468 xenografts; significant vs vehicle on Day 5
  mean tumor fBV in non-necrotic tissue (in words): declined after Day 3
[4]
  oral bioavailability (in words): orally bioavailable
[4]; Stage 1 and Stage 2
  increases in mean Cmax and AUC0-24 with dose (in words): generally dose proportional
[4]; all dose levels
  target trough plasma concentration of ~0.1 to […] (in words): achieved
[4]; continuous dosing 7 days
  accumulation of Cmax and AUC0-24, Day 1 to Day 7: ~2 fold
[4]; oral capsules
  lag time before appearance in plasma: ~30 min
CYP3A4
  inhibition of CYP3A4 (in words): No meaningful inhibition
[5]
  cardiovascular or electrocardiographic (including QT interval) parameters: no meaningful changes
[6]; normoxic, 48 hours
  decrease in VEGF concentrations in conditioned media: 39%
[6]; stress (hypoxia)-induced VEGF
  inhibition of VEGF production (in words): inhibit stress-induced VEGF production
[7]
  inhibition of hERG current (in words): negative for meaningful inhibition
Physiological VEGF-A
  plasma or serum physiological VEGF-A concentrations: No significant alterations
[8]; 7 days
  dose at which maximal exposures occurred: 120 mg/kg/day
[8]; female, read-out: NOAEL for 7-days, female rats
  NOAEL at 7 days: 120 mg/kg/day
[8]; male, read-out: NOAEL for 7-days, male rats
  NOAEL at 7 days: 40 mg/kg/day
[9]
  toxicity (viability, ATP assay): No toxicity was observed
[10]
  EC50: < 8 nM

From patent publication US8697662B2, “Methods for treating Kaposi sarcoma” (PTC Therapeutics, Inc., priority 2009, dated 2014)
